Data from patent US20020019527A1 (priority 2000, published 2002).
Counter-ions that a name gives are not always drawn. Like-named read-outs stand apart in the source and are kept apart here.

Molecular target: T1, Farnesyltransferase (FTase) (Bos taurus, UniProt P29702+P49355)
T1 construct: precipitation from a beef brain homogenate; from tissue; host or cells: bovine brain
Test: Farnesyltransferase inhibition (scintillation proximity assay, [3H]-FPP / biotin-K-ras peptide)
Assay type: biochemical, bovine
In short: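 Read-out: [3H]-FPP prenylation of a biotinylated K-ras peptide by SPA, measured 1 h after quenching. Enzyme: FTase purified from bovine brain (ammonium sulfate cut, DEAE Sepharose), free of GGTase I and II. Test compounds in ethanol, diluted 10-fold into the reaction.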

[1] = compound at 10^−6 M, bovine FTase, 37° C., 30 minutes

T1 sequence (P49355 whole entry, one chain of several): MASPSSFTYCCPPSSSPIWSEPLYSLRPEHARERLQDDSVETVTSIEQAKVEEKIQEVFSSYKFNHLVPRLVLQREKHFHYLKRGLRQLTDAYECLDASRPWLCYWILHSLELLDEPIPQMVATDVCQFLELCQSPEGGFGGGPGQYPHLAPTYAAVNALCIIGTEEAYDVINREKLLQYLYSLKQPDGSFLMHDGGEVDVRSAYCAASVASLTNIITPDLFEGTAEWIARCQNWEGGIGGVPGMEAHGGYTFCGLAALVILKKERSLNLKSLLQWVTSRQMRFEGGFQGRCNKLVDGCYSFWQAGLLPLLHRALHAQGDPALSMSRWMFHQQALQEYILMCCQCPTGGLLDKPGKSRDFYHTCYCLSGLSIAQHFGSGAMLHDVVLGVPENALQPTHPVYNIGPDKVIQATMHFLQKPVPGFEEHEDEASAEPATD

| SMILES | inhibition at 1 µM [1] [%] | further results |
| --- | --- | --- |
| Cc1cccc(-c2cc(C(OCc3ccc(C#N)cc3)c3cncn3C)ccc2C#N)c1C (centres unmarked) [Example 278, 5-(((4-cyanobenzyl)oxy)(1-methyl-1H-imidazol-5-yl)methyl)-2′,3′-dimethyl(1,1′-biphenyl)-2-carbonitrile hydrochloride] | 99 |  |
| Cn1cncc1CN(Cc1ccc(C#N)cc1)C(=O)c1ccc(C#N)c(-c2cccc3ccccc23)c1 [Example 191, 4-cyano-N-(4-cyanobenzyl)-N-((1-methy-1H-imidazol-5-yl)methyl)-3-(1-naphthyl)benzamide] |  | % Inhibition at 10^−6M [1]: 99% |
| Cn1cncc1CN(Cc1ccccc1)c1ccc(C#N)c(-c2cccc3ccccc23)c1 [Example 232, 4-(benzyl((1-methyl-1H-imidazol-5-yl)methyl)amino)-2-(1-naphthyl)benzonitrile] | 100 |  |
| C=CCN(Cc1cncn1C)c1ccc(C#N)c(-c2cccc3ccccc23)c1 [Example 228, 4-(allyl( (1-methyl-1H-imidazol-5-yl)methyl)amino)-2-(1-naphthyl)benzonitrile] | 100 |  |
| Cc1ccccc1COC(c1ccc(C#N)c(-c2ccccc2C)c1)c1cncn1C.Cl (centres unmarked) [Example 135] |  | % Inhibition at 10^−6M: 94% |
| COC(=O)c1cccc(COC(c2ccc(C#N)c(-c3ccccc3C)c2)c2cncn2C)c1 (centres unmarked) [Example 146, methyl 3-(((6-cyano-2′-methyl(1,1′-biphenyl)-3-yl)(1-methyl-1H-imidazol-5-yl)methoxy)methyl)benzoate hydrochloride] | 93 |  |
| CNC(=O)c1ccc(COC(c2ccc(C#N)c(-c3ccccc3C)c2)c2cncn2C)cc1 (centres unmarked) [Example 189, 4-(((6-cyano-2′-methyl(1,1′-biphenyl)-3-yl)(1-methyl-1H-imidazol-5-yl)methoxy)methyl)-N-methylbenzamide] | 95 |  |
| Cn1cncc1C(OCc1ccccc1)c1ccc(C#N)c(-c2ccccc2Cl)c1 (centres unmarked) [Example 10, 5-((benzyloxy)(1-methyl-1H-imidazol-5-yl)methyl)-2′-chloro(1,1′-biphenyl)-2-carbonitrile hydrochloride] | 94 |  |
| Cn1cncc1C(OCc1ccc(C(=O)O)cn1)c1ccc(C#N)c(-c2cccc3cccnc23)c1 (centres unmarked) [Example 245, 6-(((4-cyano-3-(8-quinolinyl)phenyl)(1-methyl-1H-imidazol-5-yl)methoxy)methyl)nicotinic acid trihydrochloride] | 90 |  |
| Cc1ccccc1-c1cc(C(OCc2cnc(Cl)c(Cl)c2)c2cncn2C)ccc1C#N (centres unmarked) [Example 181, 5-(((5,6-dichloro-3-pyridinyl)methoxy)(1-methyl-1H-imidazol-5-yl)methyl)-2′-methyl(1,1′-biphenyl)-2-carbonitrile hydrochloride] | 93 |  |
| Cn1cncc1C(OCc1ccc(N=[N+]=[N-])cc1)c1ccc(C#N)c(-c2cccc3ccccc23)c1 (centres unmarked) [Example 276, 4-((1-methyl-1H-imidazol-5-yl)((4-azidobenzyl)oxy)methyl)-2-(1-naphthyl)benzonitrile hydrochloride] | 100 |  |
| Cn1cncc1C(OCc1ccc(C(F)(F)F)c(F)c1)c1ccc(C#N)c(-c2ccccc2C(F)(F)F)c1 (centres unmarked) [Example 249, 5-(((3-fluoro-4-(trifluoromethyl)benzyl)oxy)(1-methyl-1H-imidazol-5-yl)methyl)-2′-(trifluoromethyl)(1,1′-biphenyl)-2-carbonitrile hydrochloride] | 98 |  |
| Cc1cccc(COC(c2ccc(C#N)c(-c3ccccc3C)c2)c2cncn2C)c1.Cl (centres unmarked) [Example 128] |  | % Inhibition at 10^−6M: 94% |
| CN(Cc1ccc(C#N)cc1)C(c1ccc(C#N)c(-c2cccc3ccccc23)c1)c1cncn1C (centres unmarked) [Example 29, 4-(((4-cyanobenzyl)(methyl)amino)(1-methyl-1H-imidazol-5-yl)methyl)-2-(1-naphthyl)benzonitrile] | 100 |  |
| Cc1ccccc1-c1cc(C(OCc2cc([N+](=O)[O-])cc3c2OCOC3)c2cncn2C)ccc1C#N.Cl (centres unmarked) [Example 168] |  | % Inhibition at 10^−6M: 96% |
| Cc1ccccc1-c1cc(C(OCc2ccccc2Br)c2cncn2C)ccc1C#N (centres unmarked) [Example 185, 5-(((2-bromobenzyl)oxy)(1-methyl-1H-imidazol-5-yl)methyl)-2′-methyl(1,1′-biphenyl)-2-carbonitrile hydrochloride] | 85 |  |
| Cc1ccccc1-c1cc(C(OCc2ccc(F)cc2C(F)(F)F)c2cncn2C)ccc1C#N (centres unmarked) [Example 141, 5-(((4-fluoro-2-(trifluoromethyl)benzyl)oxy)(1-methyl-1H-imidazol-5-yl)methyl)-2′-methyl(1,1′-biphenyl)-2-carbonitrile hydrochloride] | 95 |  |
| Cc1ccccc1-c1cc(C(OCc2noc(C(C)(C)C)n2)c2cncn2C)ccc1C#N (centres unmarked) [Example 159, 5-(((5-(tert-butyl)-1,2,4-oxadiazol-3-yl)methoxy)(1-methyl-1H-imidazol-5-yl)methyl)-2′-methyl(1,1′-biphenyl)-2-carbonitrile hydrochloride] | 91 |  |

| SMILES | inhibition at 1 µM [1] [%] | further results |
| --- | --- | --- |
| Cl.Cl.Cn1cncc1C(OCc1ccc(C(F)(F)F)c(F)c1)c1ccc(C#N)c(-c2cccc3cccnc23)c1 (centres unmarked) [Example 241, 4-(((3-fluoro-4-(trifluoromethyl)benzyl)oxy)(1-methyl-1H-imidazol-5-yI)methyl)-2-(8-quinolinyl)benzonitrile dihydrochloride] |  | % Inhibition at 10^−6M [1]: 98% |
| Cn1cncc1C(OCc1ccc(C#N)cn1)c1ccc(C#N)c(-c2ccccc2C(F)(F)F)c1 (centres unmarked) [Example 251, 6-(((6-cyano-2′-(trifluoromethyl)(1,1′-biphenyl)-3-yl)(1-methyl-1H-imidazol-5-yl)methoxy)methyl)nicotinonitrile dihydrochloride] | 99 |  |
| Cn1cncc1C(OCc1ccc(C(=O)O)cc1)c1ccc(C#N)c(-c2cccc3ccccc23)c1 (centres unmarked) [Example 69, lithium 4-(((4-cyano-3-(1-naphthyl)phenyl)(1-methyl-1H-imidazol-5-yl)methoxy)methyl)benzoate] | 100 |  |
| N#Cc1ccc(COC(c2ccsc2)c2ccc(C#N)c(-c3cccc4ccccc34)c2)nc1 (centres unmarked) [Example 289, 6-(((4-cyano-3-(1-naphthyl)phenyl)(3-thienyl)methoxy)methyl)nicotinonitrile] | 75 |  |
| CNC(=O)c1ccc(CNC(c2ccc(C#N)c(-c3cccc4ccccc34)c2)c2cncn2C)cc1 (centres unmarked) [Example 48, 4-((((4-cyano-3-(1-naphthyl)phenyl)(1-methyl-1H-imidazol-5-yl)methyl)amino)methyl)-N-methylbenzamide dihydrochloride] | 100 |  |
| Cc1ccccc1-c1cc(C(OCc2noc(-c3cccc(C(F)(F)F)c3)n2)c2cncn2C)ccc1C#N.Cl (centres unmarked) [Example 169, 2′-methyl-5-((1,1-methyl-1H-imidazol-5-yl)((5-(3-(trifluoromethyl)phenyl)-1,2,4-oxadiazol-3-yl)methoxy)methyl)(1,1′-biphenyl)-2-carbonitrile hydrochloride] |  | % Inhibition at 10^−6M: 70% |
| CC(C)c1ccccc1-c1cc(C(OCc2ccccc2)c2cncn2C)ccc1C#N (centres unmarked) [Example 8, 5-((benzyloxy)(1-methyl-1H-imidazol-5-yl)methyl)-2′-isopropyl(1,1′-biphenyl)-2-carbonitrile hydrochloride] | 100 |  |
| Cn1cncc1CN(Cc1ccc(C#N)c(-c2cccc3ccccc23)c1)C(=O)c1ccc(Cl)c(F)c1 [Example 198, 4-chloro-N-(4-cyano-3-(1-naphthyl)benzyl)-3-fluoro-N-((1-methyl-1H-imidazol-5-yl)methyl)benzamide] | 94 |  |
| COC(=O)c1ccc(COC(c2ccc(C#N)c(-c3ccccc3C)c2)c2cncn2C)cc1 (centres unmarked) [Example 130, methyl 4-(((6-cyano-2′-methyl(1,1′-biphenyl)-3-yl)(1-methyl-1H-imidazol-5-yl)methoxy)methyl)benzoate hydrochloride] | 97 |  |
| Cc1ccccc1-c1cc(C(NCc2ccc([N+](=O)[O-])cc2)c2cncn2C)ccc1C#N (centres unmarked) [Example 12] |  | % Inhibition at 10^−6M: 100% |
| Cc1ccccc1-c1cc(C(OCc2csc(-c3ccc(C(F)(F)F)cc3)n2)c2cncn2C)ccc1C#N (centres unmarked) [Example 175, 2′-methyl-5-((1-methyl-1H-imidazol-5-yl)((2-(4-(trifluoromethyl)phenyl)-1,3-thiazol-4-yl)methoxy)methyl)(1,1′-biphenyl)-2-carbonitrile hydrochloride] | 75 |  |
| Cn1cncc1C(OCc1ccc(C#N)c(Cl)c1)c1ccc(C#N)c(-c2cccc3ccccc23)c1 (centres unmarked) [Example 61, 4-(((3-chloro-4-cyanobenzyl)oxy)(1-methyl-1H-imidazol-5-yl)methyl)-2-(1-naphthyl)benzonitrile hydrochloride] | 100 |  |
| Cn1cncc1C(OCC1CCCCC1)c1ccc(C#N)c(-c2cccc3ccccc23)c1 (centres unmarked) [Example 14, 4-((cyclohexylmethoxy)(1-methyl-1H-imidazol-5-yl)methyl)-2-(1-naphthyl)benzonitrile hydrochloride] | 100 |  |
| Cl.Cl.Cn1cncc1C(OCc1cc(Cl)nc(Cl)c1)c1ccc(C#N)c(-c2cccc3ccccc23)c1 (centres unmarked) [Example 74, 4-(((2,6-dichloro-4-pyridinyl)methoxy)(1-methyl-1H-imidazol-5-yl)methy)-2-(1-naphthyl)benzonitrile dihydrochloride] |  | % Inhibition at 10^−6M [1]: 100% |
| Cc1ccccc1-c1cc(C(O)c2cncn2C)ccc1C#N (centres unmarked) [Example 86, 5-(hydroxy(1-methyl-1H-imidazol-5-yl)methyl)-2′-methyl(1,1′-biphenyl)-2-carbonitrile] | 86 |  |
| Cc1ccccc1-c1cc(C(NCc2ccc(C#N)cc2)c2cncn2C)ccc1C#N (centres unmarked) [Example 25, 5-(((4-cyanobenzyl)amino)(1-methyl-1H-imidazol-5-yl)methyl)-2′-methyl(1,1′-biphenyl)-2-carbonitrile] | 100 |  |
| COC(=O)c1ccc(CNC(c2ccc(C#N)c(-c3cccc4ccccc34)c2)c2cncn2C)nc1 (centres unmarked) [Example 52, methyl 6-((((4-cyano-3-(1-naphthyl)phenyl)(1-methyl-1H-imidazol-5-yl)methyl)amino)methyl)nicotinate trihydrochloride] | 100 |  |
